From publication PMC10991509, “A phase I study of ATR inhibitor gartisertib (M4344) as a single agent and in combination with carboplatin in patients with advanced solid tumours” (British Journal of Cancer, 2024)

Experiments:
ɣ-H2AX = ɣ-H2AX in ex vivo-stimulated CD45+ lymphocytes; design: species or system human; conditions: 350 mg QD, n = 3, highest tested dose; 3 h post first dose
Description: Exploratory objectives were to assess ATR inhibition and DNA damage by measuring phosphorylation of the Ser-139 residue of the histone variant H2AX (ɣ-H2AX) post-treatment in peripheral blood mononuclear cells (cohorts A2 and C), describe the mutational landscape and its relationship to BOR in patients with selected biomarkers (cohort C) and to determine changes in allele frequencies in mutations of interest and their association with clinical benefit (molecular response; cohorts A2 and C). Further details on the definitions of LOF mutations and methods of biomarker collection are described in the Supplementary Materials.
To determine H2AX phosphorylation (ɣ-H2AX) in lymphocytes, 100 µL of whole blood was stimulated with 62 µM 4NQO (4-nitroquinoline N-oxide, Sigma, UK) for 1 hour at 37°C. In parallel, 100 µL of whole blood was incubated with 10% DMSO (dimethyl sulfoxide, Sigma, UK) as an unstimulated control sample. The samples were subsequently treated (for 10 minutes at 37°C) with BD Lyse & Fix Solution (Becton Dickinson, USA) and the whole blood cells were permeabilized with ice-cold methanol (90% final concentration) for 30 minutes on ice. […] Cells were then analyzed using a FacsCanto II (Becton Dickinson, USA) collecting 10,000 events. […]

advanced solid tumours = test: Antitumour activity (RECIST v1.1); type: in vivo, human
Description: The secondary objectives for cohorts A, A2, and B1 were to assess antitumour activity and PK. Endpoints associated with antitumour activity included confirmed best overall response (BOR), according to RECIST v1.1. PK endpoints included PK parameter estimates, derived from plasma concentration-time data. Please see the Supplementary Materials for details on further PK endpoints and assessments as well as the PK assessment schedule (Supplementary Table S2).
In cohort C, the primary objectives were to evaluate safety, tolerability, and antitumour activity of gartisertib monotherapy in patients with LOF mutations in ARID1A (cohort C1), ATRX and/or DAXX (cohort C2), or ATM (cohort C3). The primary endpoints included safety (treatment-emergent AEs [TEAEs] and treatment-related TEAEs; laboratory abnormalities; clinically significant abnormal vital signs; and clinically significant abnormal ECGs and antitumour activity (objective response [OR], defined as confirmed BOR of complete response [CR] or partial response [PR], according to RECIST v1.1). Secondary endpoints included duration of response; progression-free survival [PFS]) as well as PK parameter estimates of gartisertib in patients with LOF mutations. The Supplementary Materials provide further information on efficacy assessments and definitions.
In cohorts A, A2, B1, and C, antitumor activity was assessed in patients with measurable disease with standard criteria (Response Evaluation Criteria in Solid Tumors version 1.1 [RECIST v1.1]). In patients with prostate cancer, Prostate Cancer Clinical Trials Working Group 2 (PCWG2) criteria were used. Patients underwent an imaging scan at screening to document extent of initial disease and in all cohorts of the study, patients underwent repeat imaging scans. Imaging scans were locally assessed for all study cohorts. Bone scans were performed as were evaluations of serum […] in patients with ovarian cancer and serum prostate-specific antigen in patients with prostate cancer.
In addition, for cohort C, tumor assessments according to RECIST v1.1 were performed at baseline and at completion of every two cycles of treatment for the first six cycles and then every three cycles thereafter until disease progression or initiation of a new anticancer therapy line. Objective response, best overall response, duration of response and progression-free survival will be determined by the investigator based on these tumor assessments, with objective responses needing to be confirmed at a scan no fewer than 4 weeks after the original evaluation. Independent review may be performed if necessary.
Objective response was defined as a confirmed assessment of complete response or partial response by the investigator using RECIST v1.1. Confirmed best overall response was defined as the best confirmed response from start of treatment. Tumor assessments performed after start of further anticancer treatment line were not used to determine best overall response. Progression-free survival was defined as the time between the start of study treatment to progressive disease (PD) or death (in case PD is not observed prior to death).

Nc1nn2cc(F)cnc2c1C(=O)Nc1cncc(F)c1N1CCC(C(=O)N2CCN(C3COC3)CC2)CC1 [gartisertib, Gartisertib]
target inhibition of ɣ-H2AX (ɣ-H2AX): Complete target inhibition
cBOR Not evaluable (advanced solid tumours; Cohort A2, 100 mg BID (N=7)): 2 (28.6) n patients (%)
cBOR Partial response (advanced solid tumours; Cohort A2, 100 mg BID (N=7)): 0 (0.0) n patients (%)
cBOR Progressive disease (advanced solid tumours; Cohort A2, 100 mg BID (N=7)): 4 (57.1) n patients (%)
cBOR Stable disease (advanced solid tumours; Cohort A2, 100 mg BID (N=7)): 1 (14.3) n patients (%)
cBOR Not evaluable (advanced solid tumours; Cohort A2, 150 mg QD (N=4)): 0 (0.0) n patients (%)
cBOR Partial response (advanced solid tumours; Cohort A2, 150 mg QD (N=4)): 0 (0.0) n patients (%)
cBOR Progressive disease (advanced solid tumours; Cohort A2, 150 mg QD (N=4)): 3 (75.0) n patients (%)
cBOR Stable disease (advanced solid tumours; Cohort A2, 150 mg QD (N=4)): 1 (25.0) n patients (%)
cBOR Not evaluable (advanced solid tumours; Cohort A2, 250 mg QD (N=7)): 0 (0.0) n patients (%)
cBOR Partial response (advanced solid tumours; Cohort A2, 250 mg QD (N=7)): 0 (0.0) n patients (%)
cBOR Progressive disease (advanced solid tumours; Cohort A2, 250 mg QD (N=7)): 3 (42.9) n patients (%)
cBOR Stable disease (advanced solid tumours; Cohort A2, 250 mg QD (N=7)): 4 (57.1) n patients (%)
cBOR Not evaluable (advanced solid tumours; Cohort A2, 350 mg QD (N=5)): 0 (0.0) n patients (%)
cBOR Partial response (advanced solid tumours; Cohort A2, 350 mg QD (N=5)): 0 (0.0) n patients (%)
cBOR Progressive disease (advanced solid tumours; Cohort A2, 350 mg QD (N=5)): 3 (60.0) n patients (%)
cBOR Stable disease (advanced solid tumours; Cohort A2, 350 mg QD (N=5)): 2 (40.0) n patients (%)
cBOR Not evaluable (advanced solid tumours; Cohort A, 10 mg BIW (N=1)): 1 (100.0) n patients (%)
cBOR Partial response (advanced solid tumours; Cohort A, 10 mg BIW (N=1)): 0 (0.0) n patients (%)
cBOR Progressive disease (advanced solid tumours; Cohort A, 10 mg BIW (N=1)): 0 (0.0) n patients (%)
cBOR Stable disease (advanced solid tumours; Cohort A, 10 mg BIW (N=1)): 0 (0.0) n patients (%)
cBOR Not evaluable (advanced solid tumours; Cohort A, 20 mg BIW (N=1)): 0 (0.0) n patients (%)
cBOR Partial response (advanced solid tumours; Cohort A, 20 mg BIW (N=1)): 0 (0.0) n patients (%)
cBOR Progressive disease (advanced solid tumours; Cohort A, 20 mg BIW (N=1)): 0 (0.0) n patients (%)
cBOR Stable disease (advanced solid tumours; Cohort A, 20 mg BIW (N=1)): 1 (100.0) n patients (%)
cBOR Not evaluable (advanced solid tumours; Cohort A, 40 mg BIW (N=1)): 0 (0.0) n patients (%)
cBOR Partial response (advanced solid tumours; Cohort A, 40 mg BIW (N=1)): 0 (0.0) n patients (%)
cBOR Progressive disease (advanced solid tumours; Cohort A, 40 mg BIW (N=1)): 1 (100.0) n patients (%)
cBOR Stable disease (advanced solid tumours; Cohort A, 40 mg BIW (N=1)): 0 (0.0) n patients (%)
cBOR Not evaluable (advanced solid tumours; Cohort A, 80 mg BIW (N=1)): 0 (0.0) n patients (%)
cBOR Partial response (advanced solid tumours; Cohort A, 80 mg BIW (N=1)): 0 (0.0) n patients (%)
cBOR Progressive disease (advanced solid tumours; Cohort A, 80 mg BIW (N=1)): 1 (100.0) n patients (%)
cBOR Stable disease (advanced solid tumours; Cohort A, 80 mg BIW (N=1)): 0 (0.0) n patients (%)
cBOR Not evaluable (advanced solid tumours; Cohort A, 160 mg BIW (N=1)): 0 (0.0) n patients (%)
cBOR Partial response (advanced solid tumours; Cohort A, 160 mg BIW (N=1)): 0 (0.0) n patients (%)
cBOR Progressive disease (advanced solid tumours; Cohort A, 160 mg BIW (N=1)): 1 (100.0) n patients (%)
cBOR Stable disease (advanced solid tumours; Cohort A, 160 mg BIW (N=1)): 0 (0.0) n patients (%)
cBOR Not evaluable (advanced solid tumours; Cohort A, 300 mg BIW (N=1)): 0 (0.0) n patients (%)
cBOR Partial response (advanced solid tumours; Cohort A, 300 mg BIW (N=1)): 0 (0.0) n patients (%)
cBOR Progressive disease (advanced solid tumours; Cohort A, 300 mg BIW (N=1)): 1 (100.0) n patients (%)
cBOR Stable disease (advanced solid tumours; Cohort A, 300 mg BIW (N=1)): 0 (0.0) n patients (%)
cBOR Not evaluable (advanced solid tumours; Cohort A, 450 mg BIW (N=3)): 0 (0.0) n patients (%)
cBOR Partial response (advanced solid tumours; Cohort A, 450 mg BIW (N=3)): 0 (0.0) n patients (%)
cBOR Progressive disease (advanced solid tumours; Cohort A, 450 mg BIW (N=3)): 1 (33.3) n patients (%)
cBOR Stable disease (advanced solid tumours; Cohort A, 450 mg BIW (N=3)): 2 (66.7) n patients (%)
cBOR Not evaluable (advanced solid tumours; Cohort A, 700 mg BIW (N=6)): 2 (33.3) n patients (%)
cBOR Partial response (advanced solid tumours; Cohort A, 700 mg BIW (N=6)): 0 (0.0) n patients (%)
cBOR Progressive disease (advanced solid tumours; Cohort A, 700 mg BIW (N=6)): 2 (33.3) n patients (%)
cBOR Stable disease (advanced solid tumours; Cohort A, 700 mg BIW (N=6)): 2 (33.3) n patients (%)
cBOR Not evaluable (advanced solid tumours; Cohort A, 1050 mg BIW (N=7)): 1 (14.3) n patients (%)
cBOR Partial response (advanced solid tumours; Cohort A, 1050 mg BIW (N=7)): 0 (0.0) n patients (%)
cBOR Progressive disease (advanced solid tumours; Cohort A, 1050 mg BIW (N=7)): 5 (71.4) n patients (%)
cBOR Stable disease (advanced solid tumours; Cohort A, 1050 mg BIW (N=7)): 1 (14.3) n patients (%)
cBOR Not evaluable (advanced solid tumours; Cohort A, 1200 mg BIW (N=4)): 2 (50.0) n patients (%)
cBOR Partial response (advanced solid tumours; Cohort A, 1200 mg BIW (N=4)): 0 (0.0) n patients (%)
cBOR Progressive disease (advanced solid tumours; Cohort A, 1200 mg BIW (N=4)): 1 (25.0) n patients (%)
cBOR Stable disease (advanced solid tumours; Cohort A, 1200 mg BIW (N=4)): 1 (25.0) n patients (%)
cBOR Not evaluable (advanced solid tumours; Cohort C, 250 mg QD (N=13)): 2 (15.4) n patients (%)
cBOR Partial response (advanced solid tumours; Cohort C, 250 mg QD (N=13)): 0 (0.0) n patients (%)
cBOR Progressive disease (advanced solid tumours; Cohort C, 250 mg QD (N=13)): 8 (61.5) n patients (%)
cBOR Stable disease (advanced solid tumours; Cohort C, 250 mg QD (N=13)): 3 (23.1) n patients (%)
BOR of SD (advanced solid tumours; cohort A2 (full analysis set 23)): 34.8%
BOR of SD (advanced solid tumours; cohort A (full analysis set 26)): 26.9%
BOR of SD (advanced solid tumours; cohort C (full analysis set 13)): 23.1%
median PFS interval (advanced solid tumours; cohort C, 95% CI 0.8, 2.1): 1.6 months
disease control according to selected biomarker status (ARID1A, ATRX/DAXX, ATM) (advanced solid tumours; cohorts A2 and C): No difference in disease control
patients with SD for >6 months (advanced solid tumours; three patients across all study cohorts): 3.1%
